Laboratory results taken from US20230263742A1, “A LIPID” (Stemirna Therapeutics Co., Ltd., priority 2021, published 2023).

tested on: Balb/C mice; experiment: Luc expression in injection site and liver site after intramuscular administration (Example 5); type: in vivo; details: 5 μg Luc mRNA-LNP (DSPC) intramuscularly, Balb/C mice n=3, 6 h
Protocol: Further bioluminescence studies were performed to investigate the delivery efficiency of nanoparticle compositions including various lipid compounds according to the present invention. The formulations containing reference cationic lipid M62, M63, M118, and M119 (corresponding to Compound 62, 63, 118, and 119 in PCT/US2018/022717 (WO2018/170306), respectively) were evaluated for comparison. Nanoparticle compositions including DSPC as an optimized phospholipid, cholesterol as a structural lipid, PEG-DMG as a PEG lipid, an RNA, and a compound above mentioned were prepared according to or via methods similar to those described in Examples 1 and 2. The ratios of the lipids were 50:10:38.5:1.5 mol % for the lipid of the present invention: DSPC: cholesterol: PEG-DMG. 5 μg of LNP solution containing luciferase mRNA was administered intramuscularly to Balb/C mice (n=3). 6 hours after administration, mice were injected intraperitoneally with 0.15 mg/kg of D-luciferin substrate. Within 15 minutes after the injection of the substrate, the fluorescence signal intensity in injection site and liver site were tested under a small animal in vivo imaging instrument. Tables 3-4 summarize the fluorescence signal intensity of the nanoparticle compositions including present invention lipids and the reference compounds in injection site and liver site.

Row | Compound | Luc expression in injection site, I.M. injection site, 6 h (ratio relative to SW-II-134-3 set as 1) | Luc expression in liver site, Liver site upon I.M., 6 h (ratio relative to SW-II-137-1 set as 1)
1 | CCCCCCCCCOC(=O)CCCCCCCN(CCO)CCCCCCCC(=O)OCc1ccc(CCCCCC)c(CCCCCC)c1 [SW-II-115] | 1.046 | –
2 | CCCCCCCCC(CCCCCCCC)OC(=O)CCCCCCCN(CCO)CCCCCCCC(=O)OCc1cccc(CCCCCC)c1 [SW-II-122] | 1.321 | –
3 | CCCCCCCCC(CCCCCCCC)OC(=O)CCCCCCCN(CCO)CCCCCCC(=O)OCc1ccc(CCCCCC)cc1 [SW-II-127] | 1.743 | –
4 | CCCCCCCCCOC(=O)CCCCCCCN(CCO)CCCCCCCC(=O)OCCc1ccc(CCCCCC)c(CCCCCC)c1 [SW-II-134-1] | 1.899 | –
5 | CCCCCCCCCOC(=O)CCCCCCCN(CCO)CCCCCCCC(=O)OCCc1ccc(CCCCCCCC)c(CCCCCCCC)c1 [SW-II-134-2] | 1.734 | –
6 | CCCCCCCCCOC(=O)CCCCCCCN(CCO)CCCCCCCC(=O)OCCc1ccc(CCCC)c(CCCC)c1 [SW-II-134-3] | 1.000 | –
7 | CCCCCCCCCOC(=O)CCCCCCCN(CCO)CCCCCCCC(=O)OCCCc1ccc(CCCCC)c(CCCCC)c1 [SW-II-135-1] | 1.771 | –
8 | CCCCCCCCCOC(=O)CCCCCCCN(CCO)CCCCCCCC(=O)OCCCc1ccc(CCCCCCC)c(CCCCCCC)c1 [SW-II-135-2] | 1.028 | –
9 | CCCCCCCCCOC(=O)CCCCCCCN(CCO)CCCCCCCC(=O)OCCCCc1ccc(CCCCCC)c(CCCCCC)c1 [SW-II-136-2] | 1.110 | 1.131
10 | CCCCCCCCC(CCCCCCCC)OC(=O)CCCCCCCN(CCO)CCCCCCCC(=O)OCCCc1ccc(CCCC)cc1 [SW-II-137-1] | – | 1.000
11 | CCCCCCCCC(CCCCCCCC)OC(=O)CCCCCCCN(CCO)CCCCCCCC(=O)OCCCc1ccc(CCCCC)cc1 [SW-II-137-2] | – | 1.206
12 | CCCCCCCCC(CCCCCCCC)OC(=O)CCCCCCCN(CCO)CCCCCCCC(=O)OCCCc1ccc(CCCCCC)cc1 [SW-II-137-3] | 1.358 | 1.981
13 | CCCCCCCCC(CCCCCCCC)OC(=O)CCCCCCCN(CCO)CCCCCCCC(=O)OCCCCc1ccc(CCCC)cc1 [SW-II-138-1] | 1.972 | 1.430
14 | CCCCCCCCC(CCCCCCCC)OC(=O)CCCCCCCN(CCO)CCCCCCCC(=O)OCCCCc1ccc(CCCCC)cc1 [SW-II-138-2] | 2.826 | 3.318
15 | CCCCCCCCC(CCCCCCCC)OC(=O)CCCCCCCN(CCO)CCCCCCCC(=O)OCCCCc1ccc(CCCCCC)cc1 [SW-II-138-3] | 1.294 | 2.850
16 | CCCCCCCCC(CCCCCCCC)OC(=O)CCCCCCCN(CCO)CCCCCCCC(=O)OCCc1cccc(CCCCCC)c1 [SW-II-139-1] | 1.807 | 2.355
17 | CCCCCCCCC(CCCCCCCC)OC(=O)CCCCCCCN(CCO)CCCCCCCC(=O)OCCc1cccc(CCCC)c1 [SW-II-139-2] | 1.440 | 1.355
18 | CCCCCCCCC(CCCCCCCC)OC(=O)CCCCCCCN(CCO)CCCCCCCC(=O)OCCc1ccccc1CCCCCC [SW-II-140-1] | 2.450 | 3.224
19 | CCCCCCCCC(CCCCCCCC)OC(=O)CCCCCCCN(CCO)CCCCCCCC(=O)OCCc1ccccc1CCCC [SW-II-140-2] | 2.257 | 6.991
